Measurements: publication PMC4474691, “Leukemia-Associated Mutations in Nucleophosmin Alter Recognition by CRM1: Molecular Basis of Aberrant Transport” (PLoS ONE, 2015)
Each block holds one molecule with its values, some of them ahead of it. *1 amine or outer side, *2 acyl side, *3 side chain or, on linkers, in order; H or OH if unused. Where a SMILES comes first, the peptide text is derived from it. Bridges are numbered along the chain shown (N, C = ends). Roman numbers before positions name the chains, in order. Where no end group is shown, it is not given here. [ ]: non-standard residue; d: D form. Actinocin(9to1) = Cc1c2oc3c(C)ccc(C(=O)[*:1])c3nc-2c(C(=O)[*:2])c(N)c1=O; NMeV = CN[C@H](C(=O)O)C(C)C; Sar = CNCC(=O)O

Tests used:
nuclear export = conditions: in vivo nuclear export assay; cited from earlier work
Description: Two sequence motifs in the core domain of NPM (residues 42–61 and 94–102) (Fig 1) have been investigated as candidate NESs. In addition, we have detected a further putative NES in the C-terminal region (see below). However, it is still unclear to what extent any of these sequences represents NPM physiological NESs. […] It is therefore not surprising that NPM deregulation is associated to cancer. NPM is overexpressed in several solid tumors (such as gastric, colon, ovarian, prostate cancer). In addition, small insertions and translocations affecting NPM1 gene, encoding NPM, are characteristic of certain hematological disorders. In fact, NPM1 is the most frequently mutated gene in adult acute myeloid leukemia (AML). […] The higher affinity of mutE(NES) for CRM1^HA is consistent with its stronger export activity previously observed using in vivo nuclear export assays. […] Thus, the ranking of in vitro CRM1^HA affinity (PKI(NES) (KD 579 n ...

CRM1^HA [1] = biological target: T1, CRM1^HA (Mus musculus, UniProt Q6P5F9, L431A/V430A/V432A); assay: Isothermal titration calorimetry, CRM1^HA / NES; assay type: binding; conditions: for binding response: titrated onto CRM1^HA, result in words
T1 construct: His-ZZ (cleaved yes); made in house; host or cells: Escherichia coli BL21-CodonPlus (DE3)
Protocol: Isothermal titration calorimetry (ITC)
ITC measurements were carried out using a VIP-ITC MicroCalorimeter (MicroCal, Inc., Northampton, MA). TFP and YFP constructs, as well as CRM1^HA, were dialyzed in a buffer containing 20 mM HEPES, pH 7.4, 50 mM NaCl, 1 mM TCEP, 1 mM MgCl2, and degassed prior to the experiment. Untagged peptides (AS: QDLCLAVEEVSLRK, AL: EAIQDLCLAVEEVSLRK, ES: QDLWQSLAQVSLRK and EL: EAIQDLWQSLAQVSLRK), N-acetylated and 95% pure, were purchased from Proteogenix (Schiltigheim, France) and resuspended in the ITC buffer. Measurements were performed at 20°C. TFP-NES, YFP-NES or NES peptides at 35–180 μM were titrated onto CRM1^HA at 2–14 μM. Injections of 6 μL were performed at 320 seconds interval (the first injection always was of 1 μL and is not considered in data analysis). To determine the thermodynamic parameters of NPM / importin interaction, importin α, importin Δα or importin α/β at 45–60 μM were titrated onto NPM (1–1.2 μM pentamer) in 50 mM Tris/HCl, pH 7.5, 100 mM NaCl, 2 mM TCEP, and 10% glycerol. […] “Reverse” titrations, where 20–30 μM NPM was titrated onto 7–10 μM of the different importins were also performed and yielded similar results.
The reaction heat of each injection is related to the calorimetric enthalpy of binding, ΔH^0. The binding isotherms, ΔH^0 vs. molar ratio, were analyzed with an independent binding sites model using MicroCal Origin software. The fit of the binding curve yields the binding constant KA (KD = 1/KA) and the enthalpy ΔH^0 of the binding reaction. The Gibbs free energy of binding ΔG^0 and the entropy ΔS^0 are determined from the basic thermodynamic expressions: ΔG^0 = -RTlnKA = ΔH^0−TΔS^0, where R and T are the gas constant and the absolute temperature, respectively.
Fig 5 Analysis of CRM1^HA/TFP-NES interaction by ITC. Isothermal titration of CRM1^HA with TFP-mutE(NES). […] The titration of negative control TFP-Cter (180 μM) onto CRM1^HA (14 μM) (circles) is also shown for comparison.

[2] = system: endogenous NPM in HEK293T cells; assay: Localization of endogenous NPM in HEK293T cells; assay type: cell-based, human
Protocol: (§1) Cell culture, transfection, treatment and imaging
(§2) Human embryonic kidney 293T (HEK293T) and HeLa cells (ECACC) were grown in Dulbecco’s modified Eagle’s medium, supplemented with 10% fetal bovine serum, 100 units/ml penicillin and 100 μg/ml streptomycin (all from Invitrogen). The cells were seeded onto sterile glass coverslips in 12-well trays 24 h before transfection. Transfections were carried out with XtremeGENE 9 (Roche) following the manufacturer’s protocol. Treatment of cells with the different drugs was done at the indicated final concentrations and time periods: Actinomycin D (ActD, Sigma) at 5 μg / mL for 3 h, and hydroxyurea (HU, Sigma) at 4 mM for 24 h.
Cells were fixed, either 20 or 42 h after transfection, with 3.7% formaldehyde in PBS for 30 min, then treated with 0.2% Triton X-100 in PBS for 10 min, for membrane permeabilization and incubated for 1 h in blocking solution (3% BSA in PBS). In YFP-CRM1 overexpression experiments, endogenous NPM was detected with anti-B23 (Santa Cruz Biotechnology FC82291, dilution 1:800), Myc3-NPM with anti-Myc (Cell Signalling 2276, dilution 1:2000) and Flag-SurvNLS with anti-Flag (Sigma F1704, dilution 1:300). Primary antibodies were diluted in blocking solution. In all cases, the secondary antibody was Alexa Fluor 594 anti-mouse (Invitrogen A11005, dilution 1:400). Washing between the different steps were carried out with PBS. […] Slides were examined using a Zeiss Axioskop fluorescence microscope. For quantification, at least 200 cells were “blind counted” and classified as having nuclear (or nucleolar), nuclear/cytoplasmic or cytoplasmic localization of NPM (or the Flag-SurvNLS control). […]
Fig 2 Localization of endogenous and ectopically expressed NPM and effect of treatment with actinomycin D (ActD) and CRM1 overexpression in HEK293T cells. […] Green denotes YFP (Y) or YFP-CRM1 (YC) fluorescence; red, immunostaining of endogenous NPM; and blue, DAPI fluorescence. […] More than 200 cells were “blind” counted. […] (D) Quantification of cytoplasmic (C) or nuclear and cytoplasmic (N/C) localization of overexpressed Flag-SurvNLS and Myc-NPM. […]

Myc-NPM in HEK293T cells = assay: Localization of Myc-NPM in HEK293T cells; assay type: cell-based, human
Protocol: as §1, §2
Cells were fixed, either 20 or 42 h after transfection, with 3.7% formaldehyde in PBS for 30 min, then treated with 0.2% Triton X-100 in PBS for 10 min, for membrane permeabilization and incubated for 1 h in blocking solution (3% BSA in PBS). In YFP-CRM1 overexpression experiments, endogenous NPM was detected with anti-B23 (Santa Cruz Biotechnology FC82291, dilution 1:800), Myc3-NPM with anti-Myc (Cell Signalling 2276, dilution 1:2000) and Flag-SurvNLS with anti-Flag (Sigma F1704, dilution 1:300). Primary antibodies were diluted in blocking solution. In all cases, the secondary antibody was Alexa Fluor 594 anti-mouse (Invitrogen A11005, dilution 1:400). […] Slides were examined using a Zeiss Axioskop fluorescence microscope. […]

CRM1^HA [3] = biological target: T1, CRM1^HA; assay: Fluorescence anisotropy binding assay, CRM1^HA; conditions: 0–60 μM CRM1^HA, 25°C
Protocol: Fluorescence anisotropy binding assays
To estimate CRM1 binding affinities for NES motifs we monitored binding with a fluorescence-polarization assay based on previously described approaches. The increase in fluorescence anisotropy of TFP/YFP when the TFP/YFP-NES construct (50 nM) binds to 0–60 μM CRM1 (either CRM^HA or wild type) was recorded at 25°C with a 8100 SLM-Aminco spectrofluorometer in buffer 20 mM Tris/HCl, pH 7.4, 50 mM NaCl, 5 mM DTT, 2 mM MgCl2. Excitation and emission wavelengths were 463, 500 nm for TFP and 463, 533 nm for YFP, and slits width 4 and 8 nm, respectively.
Fig 4 Binding of CRM1 to TFP-NES constructs. (A) Scheme of the engineered TFP constructs, showing the sequence of the NES motifs. Φ residues are highlighted in red. (B) Titration of CRM1 onto the different TFP constructs (50 nM), at 25°C, in buffer 20 mM Tris/HCl, pH 7.4, 50 mM NaCl, 5 mM DTT, 2 mM MgCl2: Left panel: Binding of CRM1^HA (solid symbols) or wild type CRM1 (empty symbols) to TFP-PKI(NES). Right panel: Binding of CRM1^HA to TFP-mutE(NES) (triangles) and TFP-mutA(NES) (squares). Fraction bound was calculated from the relative increase in fluorescence anisotropy of TFP (λexc 463 nm, λem 500 nm). Error bars correspond to at least three measurements per CRM1 concentration.
We next used the TFP-(NES) constructs to monitor CRM1^HA binding to each motif, using the change in fluorescence anisotropy upon complex formation as a readout (Fig 4B), as previously described. […] The different nature of the fluorescent tag, and/or the linker between the fluorescent protein and the NES (2 residues longer in the YFP-PKI construct) could explain the discrepancy. […] To isolate the CRM1 / NES interaction under study from the influence of the tag protein, we have also conducted binding assays with peptides corresponding to the NES motifs (see below).

[4] = ITC, NES ligand (35–180 μM) titrated onto CRM1^HA (2–14 μM), 20°C, 20 mM HEPES pH 7.4, 50 mM NaCl, 1 mM TCEP, 1 mM MgCl2, independent binding sites model, read-out: KD
[5] = TFP/YFP-NES construct 50 nM, 20 mM Tris/HCl pH 7.4, 50 mM NaCl, 5 mM DTT, 2 mM MgCl2, at least three measurements per CRM1 concentration, read-out: apparent KD (C50)

T1 sequence (Q6P5F9 1-1062 V430A/L431A/V432A limits assumed): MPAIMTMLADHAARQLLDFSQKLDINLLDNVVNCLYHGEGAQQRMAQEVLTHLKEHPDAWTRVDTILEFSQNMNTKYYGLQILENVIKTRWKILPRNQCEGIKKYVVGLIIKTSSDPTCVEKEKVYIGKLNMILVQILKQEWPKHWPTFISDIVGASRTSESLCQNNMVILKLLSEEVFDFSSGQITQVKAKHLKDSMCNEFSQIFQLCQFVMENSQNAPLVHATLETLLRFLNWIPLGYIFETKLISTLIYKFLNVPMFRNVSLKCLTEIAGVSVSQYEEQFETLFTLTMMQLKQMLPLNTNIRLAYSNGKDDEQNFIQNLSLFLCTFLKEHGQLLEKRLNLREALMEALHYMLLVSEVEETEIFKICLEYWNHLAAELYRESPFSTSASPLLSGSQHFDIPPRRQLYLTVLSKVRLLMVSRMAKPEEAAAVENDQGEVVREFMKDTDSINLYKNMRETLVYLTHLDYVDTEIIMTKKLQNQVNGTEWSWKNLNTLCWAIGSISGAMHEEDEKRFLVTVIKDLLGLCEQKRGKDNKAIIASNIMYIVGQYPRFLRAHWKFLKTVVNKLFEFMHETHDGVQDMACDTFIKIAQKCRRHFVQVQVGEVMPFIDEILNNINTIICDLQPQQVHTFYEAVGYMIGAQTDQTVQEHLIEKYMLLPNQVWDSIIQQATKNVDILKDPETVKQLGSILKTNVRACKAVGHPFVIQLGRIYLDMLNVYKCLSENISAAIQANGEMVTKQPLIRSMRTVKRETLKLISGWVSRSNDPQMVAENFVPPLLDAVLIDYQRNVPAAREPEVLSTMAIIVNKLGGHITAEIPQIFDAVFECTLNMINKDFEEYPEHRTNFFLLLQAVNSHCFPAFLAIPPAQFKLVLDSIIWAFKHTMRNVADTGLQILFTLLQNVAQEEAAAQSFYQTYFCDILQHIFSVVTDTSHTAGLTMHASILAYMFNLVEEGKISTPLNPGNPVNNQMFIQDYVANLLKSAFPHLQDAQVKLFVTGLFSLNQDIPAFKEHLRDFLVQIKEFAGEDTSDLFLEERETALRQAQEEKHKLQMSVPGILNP

Kd (CRM1^HA [1]; [4]): 76 ± 1 nM
Molecule: Ac-QDLWQSLAQVSLRK [peptide ES]

binding response (CRM1^HA [1]; ITC, 20°C, 20 mM HEPES pH 7.4): showed no binding in our conditions
Molecule: QDLCLAVEEVSLRK [peptide AS, short version of the NES motif of mutant A]

Kd (CRM1^HA [3]; [5]): 579 nM
Molecule: LALKLAGLDI [PKI(NES), in b48 the value is that of TFP-PKI(NES), reference compound]

Kd (CRM1^HA [1]; [4]): 31 ± 1 nM
Molecule: Ac-EAIQDLWQSLAQVSLRK [peptide EL]

The remaining lines, values behind:

Molecule: residues 42–49: candidate NES motif in the core domain of NPM (LSLRTVSL; UniProt P06748 42-49, looked up, fragment)
NES export activity in cells (nuclear export): border-line activity

Molecule: Cc1c2oc3c(C)ccc(C(=O)N[C@@H]4C(=O)N[C@H](C(C)C)C(=O)N5CCC[C@H]5C(=O)N(C)CC(=O)N(C)[C@@H](C(C)C)C(=O)O[C@@H]4C)c3nc-2c(C(=O)N[C@@H]2C(=O)N[C@H](C(C)C)C(=O)N3CCC[C@H]3C(=O)N(C)CC(=O)N(C)[C@@H](C(C)C)C(=O)O[C@@H]2C)c(N)c1=O [ActD, actinomycin D] (I: T[dV]P[Sar][NMeV] / II: T[dV]P[Sar][NMeV]; ester I:1-I:C, II:1-II:C; linker I:N-II:N via Actinocin(9to1))
cytoplasmic localization of endogenous NPM ([2]; HEK293T expressing YFP-CRM1, ActD 5 μg/mL 3 h where ActD): a further increase was observed
nuclear/cytoplasmic localization of endogenous NPM ([2]; YFP-transfected HEK293T, ActD 5 μg/mL 3 h, no CRM1 overexpression): does not affect, however, the amount of cells displaying nuclear/cytoplasmic localization of NPM
cells with nuclear/cytoplasmic localization of Myc-NPM (Myc-NPM in HEK293T cells; YFP-CRM1 co-expression and ActD (5 μg/mL, 3 h), >200 cells counted): 33%

Molecule: 94–102: candidate NES motif in the core domain of NPM (ITPPVVLRL; UniProt P06748 94-102, looked up, fragment)
NES export activity in cells (nuclear export): border-line activity

Molecule: Ac-EAIQDLCLAVEEVSLRK [peptide AL]
Kd (CRM1^HA [1]): 57 ± 10 nM

Molecule: DLWQSLAQVSLRK [TFP-mutE(NES), NES of NPM mutant E as C-terminal fusion to teal fluorescent protein]
Kd (CRM1^HA [3]; TFP-NES 50 nM, pH 7.4, rounded, read-out: apparent KD): 2200 nM
Kd (CRM1^HA [3]; [5]): 2160 ± 556 nM
Kd (CRM1^HA [1]; [4]): 1040 ± 41 nM
ΔH (CRM1^HA [1]; ITC, NES ligand titrated onto CRM1^HA, 20°C, 20 mM HEPES pH 7.4): -15.4 ± 3.1 kcal/mol
-TΔS (CRM1^HA [1]; ITC, NES ligand titrated onto CRM1^HA, 20°C, 20 mM HEPES pH 7.4, from ΔG = ΔH − TΔS): 7.4 ± 3.1 kcal/mol
n (binding stoichiometry) (CRM1^HA [1]; ITC, NES ligand titrated onto CRM1^HA, 20°C, 20 mM HEPES pH 7.4, low n of peptides might result from limited solubility): 0.80 ± 0.19
ΔG (CRM1^HA [1]; ITC, NES ligand titrated onto CRM1^HA, 20°C, 20 mM HEPES pH 7.4, ΔG = -RTlnKA): -8.0 ± 0.0 kcal/mol
Kd (CRM1^HA [1]; ITC, TFP-NES titrated onto CRM1^HA, 20°C, 20 mM HEPES pH 7.4, rounded, read-out: KD): 1000 nM

Molecule: DLWQWRKSL [TFP-Cter, negative control construct containing the last 9 C-terminal residues of wild type NPM]
binding response (CRM1^HA [1]; ITC, 20°C, 20 mM HEPES pH 7.4): small exothermic peaks (Fig 5), which may reflect a non-specific binding

Molecule: NC(=O)NO [HU, hydroxyurea]
effect of HU on endogenous NPM localization ([2]; hydroxyurea 4 mM 24 h (data not shown)): could not be observed on endogenous NPM
cells with cytoplasmic relocation of Myc-NPM, YFP-CRM1 co-expression with HU (Myc-NPM in HEK293T cells; YFP-CRM1 co-expression, hydroxyurea 4 mM 24 h (increase from 20%)): 50%

Molecule: DLWQSLAQVSLRK [mutE(NES), acquired NES motif of AML-associated NPM mutant E]
relative affinity for CRM1^HA, mutant E NES vs mutant A NES (CRM1^HA [1]; anisotropy, ITC with TFP constructs and ITC with untagged peptides): approximately double that of mutant A
NES export activity in cells (nuclear export): much higher than that of mutant A NES, and comparable to the export activity of PKI(NES)
